Results as given in ChEMBL document CHEMBL1133057, “Synthesis and in vitro antibacterial activity of 3-[N-methyl-N-(3-methyl-1,3-thiazolium-2-yl)aminolmethyl cephalosporin derivatives” (2000).
Converted amounts (≈) assume the structure as drawn.

Key:
Pseudomonas aeruginosa [1] = test: Compound was tested in vitro for its minimum inhibitory concentration by serial 2-fold agar dilution Muller Hinton method against Pseudomonas aeruginosa 1592 E; format: functional
Streptococcus pyogenes [2] = test: Compound was tested in vitro for its minimum inhibitory concentration by serial 2-fold agar dilution Muller Hinton method against Streptococcus pyogenes A 308; format: functional
Escherichia coli [3] = test: Compound was tested in vitro for its minimum inhibitory concentration by serial 2-fold agar dilution Muller Hinton method against Escherichia coli DC 0; format: functional
Pseudomonas aeruginosa [4] = test: Compound was tested in vitro for its minimum inhibitory concentration by serial 2-fold agar dilution Muller Hinton method against Pseudomonas aeruginosa 9027; format: functional
Streptococcus pyogenes [5] = test: Compound was tested in vitro for its minimum inhibitory concentration by serial 2-fold agar dilution Muller Hinton method against Streptococcus pyogenes 8b; format: functional
Klebsiella aerogenes = test: Compound was tested in vitro for its minimum inhibitory concentration by serial 2-fold agar dilution Muller Hinton method against Klebsiella aerogenes 1522 E; format: functional
Klebsiella oxytoca = test: Compound was tested in vitro for its minimum inhibitory concentration by serial 2-fold agar dilution Muller Hinton method against Klebsiella oxytoca 1082 E; format: functional
Staphylococcus aureus [6] = test: Compound was tested in vitro for its minimum inhibitory concentration by serial 2-fold agar dilution Muller Hinton method against Staphylococcus aureus SG511; format: functional
Streptococcus pyogenes [7] = test: Compound was tested in vitro for its minimum inhibitory concentration by serial 2-fold agar dilution Muller Hinton method against Streptococcus pyogenes A77; format: functional
Enterobacter cloacae [8] = test: Compound was tested in vitro for its minimum inhibitory concentration by serial 2-fold agar dilution Muller Hinton method against Enterobacter cloacae P99; format: functional
Staphylococcus aureus [9] = test: Compound was tested in vitro for its minimum inhibitory concentration by serial 2-fold agar dilution Muller Hinton method against Staphylococcus aureus 285; format: functional
Staphylococcus aureus [10] = test: Compound was tested in vitro for its minimum inhibitory concentration by serial 2-fold agar dilution Muller Hinton method against Staphylococcus aureus 503; format: functional
Pseudomonas aeruginosa [11] = test: Compound was tested in vitro for its minimum inhibitory concentration by serial 2-fold agar dilution Muller Hinton method against Pseudomonas aeruginosa 1771; format: functional
Escherichia coli [12] = test: Compound was tested in vitro for its minimum inhibitory concentration by serial 2-fold agar dilution Muller Hinton method against Escherichia coli 1507E; format: functional
Escherichia coli [13] = test: Compound was tested in vitro for its minimum inhibitory concentration by serial 2-fold agar dilution Muller Hinton method against Escherichia coli O 55; format: functional
Escherichia coli [14] = test: Compound was tested in vitro for its minimum inhibitory concentration by serial 2-fold agar dilution Muller Hinton method against Escherichia coli TEM; format: functional
Enterobacter cloacae [15] = test: Compound was tested in vitro for its minimum inhibitory concentration by serial 2-fold agar dilution Muller Hinton method against Enterobacter cloacae 1321; format: functional
Pseudomonas aeruginosa [16] = test: Compound was tested in vitro for its minimum inhibitory concentration by serial 2-fold agar dilution Muller Hinton method against Pseudomonas aeruginosa 1771 M; format: functional
Salmonella typhimurium = test: Compound was tested in vitro for its minimum inhibitory concentration by serial 2-fold agar dilution Muller Hinton method against Salmonella Typhimurium; format: functional, Salmonella enterica subsp. enterica serovar Typhimurium; conditions: Salmonella enterica
Escherichia coli [17] = test: Compound was tested in vitro for its minimum inhibitory concentration by serial 2-fold agar dilution Muller Hinton method against Escherichia coli DC 2; format: functional

Row | SMILES | MIC (Pseudomonas aeruginosa [1]) [µg/mL] | MIC (Streptococcus pyogenes [2]) [µg/mL] | MIC (Escherichia coli [3]) [µg/mL] | MIC (Pseudomonas aeruginosa [4]) [µg/mL] | MIC (Streptococcus pyogenes [5]) [µg/mL] | MIC (Klebsiella aerogenes) [µg/mL] | MIC (Klebsiella oxytoca) [µg/mL] | MIC (Staphylococcus aureus [6]) [µg/mL] | MIC (Streptococcus pyogenes [7]) [µg/mL] | MIC (Enterobacter cloacae [8]) [µg/mL] | MIC (Staphylococcus aureus [9]) [µg/mL] | MIC (Staphylococcus aureus [10]) [µg/mL] | MIC (Pseudomonas aeruginosa [11]) [µg/mL] | MIC (Escherichia coli [12]) [µg/mL] | MIC (Escherichia coli [13]) [µg/mL] | MIC (Escherichia coli [14]) [µg/mL] | MIC (Enterobacter cloacae [15]) [µg/mL] | MIC (Pseudomonas aeruginosa [16]) [µg/mL] | MIC (Salmonella typhimurium) [µg/mL] | MIC (Escherichia coli [17]) [µg/mL]
1 | CO/N=C(\C(=O)NC1C(=O)N2C(C(=O)[O-])=C(CN(C)c3scc[n+]3C)CSC12)c1csc(N)n1 (stereo not given) | 50 (≈ 95.5 µM) | 0.007 (≈ 0.0134 µM) | 0.098 (≈ 0.187 µM) | 50 (≈ 95.5 µM) | > 100 | 0.098 (≈ 0.187 µM) | 25 (≈ 47.7 µM) | 1.56 (≈ 2.98 µM) | 0.007 (≈ 0.0134 µM) | 50 (≈ 95.5 µM) | 3.12 (≈ 5.97 µM) | 0.391 (≈ 0.747 µM) | 25 (≈ 47.7 µM) | 0.098 (≈ 0.187 µM) | 0.025 (≈ 0.0477 µM) | 0.098 (≈ 0.187 µM) | 0.049 (≈ 0.0936 µM) | 1.56 (≈ 2.98 µM) | 0.098 (≈ 0.187 µM) | 0.098 (≈ 0.187 µM)
2 | CO/N=C(\C(=O)NC1C(=O)N2C(C(=O)[O-])=C(CN(C)c3sc4c([n+]3C)CCCC4)CSC12)c1csc(N)n1 (stereo not given) | 25 (≈ 43.3 µM) | 0.007 (≈ 0.0121 µM) | 0.049 (≈ 0.0848 µM) | 50 (≈ 86.5 µM) | 12.5 (≈ 21.6 µM) | 0.025 (≈ 0.0433 µM) | 3.12 (≈ 5.41 µM) | 0.391 (≈ 0.677 µM) | 0.007 (≈ 0.0121 µM) | 6.25 (≈ 10.8 µM) | 0.781 (≈ 1.35 µM) | 0.195 (≈ 0.338 µM) | 6.25 (≈ 10.8 µM) | 0.049 (≈ 0.0848 µM) | 0.025 (≈ 0.0433 µM) | 0.049 (≈ 0.0848 µM) | 0.013 (≈ 0.0225 µM) | 0.781 (≈ 1.35 µM) | 0.049 (≈ 0.0848 µM) | 0.025 (≈ 0.0433 µM)
3 | CCO/N=C(\C(=O)NC1C(=O)N2C(C(=O)[O-])=C(CN(C)c3sc(C(=O)OCC)c(C)[n+]3C)CSC12)c1csc(N)n1 (stereo not given) | 50 (≈ 80.2 µM) | 0.007 (≈ 0.0112 µM) | 0.098 (≈ 0.157 µM) | 100 (≈ 160 µM) | 25 (≈ 40.1 µM) | 0.049 (≈ 0.0786 µM) | 6.25 (≈ 10 µM) | 1.56 (≈ 2.51 µM) | 0.004 (≈ 0.00641 µM) | 3.12 (≈ 5.01 µM) | 1.56 (≈ 2.51 µM) | 0.781 (≈ 1.25 µM) | 25 (≈ 40.1 µM) | 0.098 (≈ 0.157 µM) | 0.049 (≈ 0.0786 µM) | 0.195 (≈ 0.313 µM) | 0.025 (≈ 0.0401 µM) | 1.56 (≈ 2.51 µM) | 0.049 (≈ 0.0786 µM) | 0.049 (≈ 0.0786 µM)
4 | C=CCO/N=C(\C(=O)NC1C(=O)N2C(C(=O)[O-])=C(CN(C)c3sc4c([n+]3C)CCCC4)CSC12)c1csc(N)n1 (stereo not given) | 50 (≈ 82.8 µM) | 0.004 (≈ 0.00663 µM) | 0.391 (≈ 0.648 µM) | 50 (≈ 82.8 µM) | 50 (≈ 82.8 µM) | 0.195 (≈ 0.323 µM) | 6.25 (≈ 10.4 µM) | 0.391 (≈ 0.648 µM) | 0.004 (≈ 0.00663 µM) | 12.5 (≈ 20.7 µM) | 0.781 (≈ 1.29 µM) | 0.195 (≈ 0.323 µM) | 6.25 (≈ 10.4 µM) | 0.391 (≈ 0.648 µM) | 0.049 (≈ 0.0812 µM) | 0.391 (≈ 0.648 µM) | 0.049 (≈ 0.0812 µM) | 0.781 (≈ 1.29 µM) | 0.195 (≈ 0.323 µM) | 0.025 (≈ 0.0414 µM)
5 | CCO/N=C(\C(=O)NC1C(=O)N2C(C(=O)[O-])=C(CN(C)c3scc(C)[n+]3C)CSC12)c1csc(N)n1 (stereo not given) | 12.5 (≈ 22.7 µM) | 0.013 (≈ 0.0236 µM) | 0.098 (≈ 0.178 µM) | 25 (≈ 45.3 µM) | 50 (≈ 90.6 µM) | 0.049 (≈ 0.0888 µM) | 6.25 (≈ 11.3 µM) | 0.781 (≈ 1.42 µM) | 0.013 (≈ 0.0236 µM) | 25 (≈ 45.3 µM) | 1.56 (≈ 2.83 µM) | 0.391 (≈ 0.709 µM) | 3.12 (≈ 5.66 µM) | 0.098 (≈ 0.178 µM) | 0.025 (≈ 0.0453 µM) | 0.098 (≈ 0.178 µM) | 0.025 (≈ 0.0453 µM) | 0.391 (≈ 0.709 µM) | 0.049 (≈ 0.0888 µM) | 0.025 (≈ 0.0453 µM)
6 | CCOC(=O)c1sc(N(C)CC2=C(C(=O)[O-])N3C(=O)C(NC(=O)/C(=N\OC)c4csc(N)n4)C3SC2)[n+](C)c1C (stereo not given) | 50 (≈ 82 µM) | 0.007 (≈ 0.0115 µM) | 0.098 (≈ 0.161 µM) | 100 (≈ 164 µM) | 25 (≈ 41 µM) | 0.049 (≈ 0.0804 µM) | 6.25 (≈ 10.3 µM) | 1.56 (≈ 2.56 µM) | 0.004 (≈ 0.00656 µM) | 3.12 (≈ 5.13 µM) | 1.56 (≈ 2.56 µM) | 0.781 (≈ 1.28 µM) | 25 (≈ 41 µM) | 0.098 (≈ 0.161 µM) | 0.049 (≈ 0.0804 µM) | 0.195 (≈ 0.32 µM) | 0.025 (≈ 0.041 µM) | 1.56 (≈ 2.56 µM) | 0.049 (≈ 0.0804 µM) | 0.049 (≈ 0.0804 µM)
7 | CO/N=C(\C(=O)NC1C(=O)N2C(C(=O)[O-])=C(CN(C)c3sc(C(N)=O)c(C)[n+]3C)CSC12)c1csc(N)n1 (stereo not given) | 25 (≈ 43.1 µM) | 0.007 (≈ 0.0121 µM) | 0.049 (≈ 0.0844 µM) | 50 (≈ 86.1 µM) | 12.5 (≈ 21.5 µM) | 0.025 (≈ 0.0431 µM) | 3.12 (≈ 5.38 µM) | 0.391 (≈ 0.673 µM) | 0.007 (≈ 0.0121 µM) | 6.25 (≈ 10.8 µM) | 0.781 (≈ 1.34 µM) | 0.195 (≈ 0.336 µM) | 6.25 (≈ 10.8 µM) | 0.049 (≈ 0.0844 µM) | 0.025 (≈ 0.0431 µM) | 0.049 (≈ 0.0844 µM) | 0.013 (≈ 0.0224 µM) | 0.781 (≈ 1.34 µM) | 0.049 (≈ 0.0844 µM) | 0.025 (≈ 0.0431 µM)
